Reference: BindingDB's records for doi:10.1111/j.1747-0285.2008.00752.x (Universitat Aut&Ogravenoma De Barcelona, 2009)

Columns and labels:
Assay in all cases: Inhibition Assay
Carboxypeptidase B = molecular target: T1, Carboxypeptidase B (Helicoverpa zea, UniProt Q3T905)
T1 sequence (Q3T905 whole entry): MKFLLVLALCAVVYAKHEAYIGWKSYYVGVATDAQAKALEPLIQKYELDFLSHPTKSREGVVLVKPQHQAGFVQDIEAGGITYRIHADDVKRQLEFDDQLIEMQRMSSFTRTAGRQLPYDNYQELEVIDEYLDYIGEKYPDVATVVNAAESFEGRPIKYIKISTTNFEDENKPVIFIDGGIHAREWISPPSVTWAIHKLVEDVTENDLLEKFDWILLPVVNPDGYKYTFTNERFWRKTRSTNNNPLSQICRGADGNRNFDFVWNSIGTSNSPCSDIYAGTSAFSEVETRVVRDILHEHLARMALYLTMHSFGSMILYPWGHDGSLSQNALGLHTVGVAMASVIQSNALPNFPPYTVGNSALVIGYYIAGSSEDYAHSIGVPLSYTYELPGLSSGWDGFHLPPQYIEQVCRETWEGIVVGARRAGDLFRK
Description: (§1) The aromatic compounds screening were characterized by molecular docking as well as by in vitro inhibition assay against carboxypeptidase(CPs) of different specifications and natural origin.

Carboxypeptidase B2 = molecular target: T2, Carboxypeptidase B2 (Homo sapiens, UniProt Q96IY4)
T2 sequence (Q96IY4 whole entry): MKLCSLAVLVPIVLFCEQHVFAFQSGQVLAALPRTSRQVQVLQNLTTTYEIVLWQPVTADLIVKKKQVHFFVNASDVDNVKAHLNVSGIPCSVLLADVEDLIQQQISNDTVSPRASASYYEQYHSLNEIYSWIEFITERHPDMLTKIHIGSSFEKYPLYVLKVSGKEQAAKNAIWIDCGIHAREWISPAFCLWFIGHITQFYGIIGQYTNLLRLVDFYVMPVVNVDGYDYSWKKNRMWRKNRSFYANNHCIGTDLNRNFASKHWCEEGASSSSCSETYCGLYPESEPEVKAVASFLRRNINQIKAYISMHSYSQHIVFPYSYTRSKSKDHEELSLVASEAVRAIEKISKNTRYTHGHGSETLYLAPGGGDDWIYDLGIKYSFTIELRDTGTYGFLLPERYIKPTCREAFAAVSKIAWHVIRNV
Description: as §1

Carboxypeptidase A1 = molecular target: T3, Carboxypeptidase A1 (Bos taurus, UniProt P00730)
T3 sequence (P00730 whole entry): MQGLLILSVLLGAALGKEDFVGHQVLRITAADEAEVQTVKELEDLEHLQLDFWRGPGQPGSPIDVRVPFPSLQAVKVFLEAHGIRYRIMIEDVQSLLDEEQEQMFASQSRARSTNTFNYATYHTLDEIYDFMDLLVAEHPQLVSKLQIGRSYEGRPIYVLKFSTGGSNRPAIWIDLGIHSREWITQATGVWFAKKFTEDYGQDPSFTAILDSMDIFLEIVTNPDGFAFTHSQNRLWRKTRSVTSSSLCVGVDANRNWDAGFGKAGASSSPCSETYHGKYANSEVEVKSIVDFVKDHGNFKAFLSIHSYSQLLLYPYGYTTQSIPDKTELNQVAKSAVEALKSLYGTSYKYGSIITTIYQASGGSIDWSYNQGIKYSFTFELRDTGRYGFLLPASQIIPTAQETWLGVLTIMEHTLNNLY
Description: as §1

SMILES	Ki (Carboxypeptidase B)	Ki (Carboxypeptidase B2)	Ki (Carboxypeptidase A1)
COc1ccc2[nH]c(=O)c(CN(CCO)C(=S)Nc3ccc(C)cc3)cc2c1 [1-(2-hydroxyethyl)-1-((6-methoxy-2-oxo-1,2-dihydroquinolin-3-yl)methyl)3-yl)methyl)-3-p-tolythiourea, 7]	20.5 µM	22.5 µM	420 µM
O=C(Cn1nnc(-c2cccs2)n1)N1CCc2ccccc2C1 [1-(3,4-dihydroisoquinolin-2(1H)-yl)-2-(5thiophen-2-yl)-2H-tetrazol-2-yl)ethanone, 3]	62 µM	32 µM	520 µM
Cc1ccc(C(=O)CSc2nnc(COc3cccc4cccnc34)o2)cc1 [1-(4-methylphenyl)-2-[[5-(8-quinolinyloxymethyl)-1,3,4-oxadiazol-2-yl]thio]ethanone]	14 µM	50 µM	32 µM
Cc1ccc2[nH]c(=O)c(CN(Cc3cccs3)C(=S)NC(C)c3ccccc3)cc2c1 (stereo not given) [1-((6-methyl-2-oxo-1,2-dihydroquinolin-3-yl)methyl)-3-(1-phenylethyl)-1-(thiophen-2-ylmethyl)thiourea, 10]	0.58 µM	1.6 µM	3.8 µM
Cc1ccc(C(=O)CSc2nnc(COc3ccc4ccccc4c3)o2)cc1 [2-(5-(naphthalen-2-yloxy)methyl)-1,3,4-oxadiazol-2-ylthio)-1-p-tolylethanone, 5]	1.6 µM	1.9 µM	58 µM

Continued, values first:

Ki (Carboxypeptidase B)	Ki (Carboxypeptidase B2)	Ki (Carboxypeptidase A1)	SMILES
100 µM	220 µM	280 µM	Nc1nccc2cc(CC(N)C(=O)O)ccc12 (stereo not given) [2-Amino-3-(1-aminoisoquinolin-6-yl)propanoic acid, 1]
129 µM	145 µM	290 µM	Nc1nccc2ccc(CC(N)C(=O)O)cc12 (stereo not given) [2-amino-3-(1-aminoisoquinolin-7-yl)propanoic acid, 2]
35 µM	11.8 µM	10.4 µM	O=C(O)CCSc1nnc(COc2cccc3ccccc23)n1-c1ccccc1 [3-(5-((naphthalen-1-yloxy)methyl)-4-pheny-4H-1,2,4-triazol-3-ythio)propanoic acid, 8]
82 µM	14.3 µM	37 µM	O=c1[nH]c(CN(Cc2ccccc2)S(=O)(=O)c2ccc(F)cc2)nc2ccccc12 [N-benzyl-4-fluoro-N-((4-hydroxyquinazolin-2-yl)methylbenzensulfonamide, 9]
1.2 µM	13.3 µM	15 µM	COC(=O)c1ccccc1NC(=S)N(Cc1ccco1)Cc1cc2cccc(C)c2[nH]c1=O [methyl 2-(3-furan-2-ylmethyl)-3-((8-methyl-2-oxo-1,2,-dihydroquinolin-3-yl)methyl)thioureido)benzoate, 11]
